Experimental data published in patent US10668127B2, “Method and composition for synchronizing time of insemination” (UNITED-AH II, LLC, priority 2009, dated 2020).

Key:
[1] = test system: sows; test: Ovulation detection by transrectal ultrasonography (Examples 1-7); assay type: in vivo, swine; settings: for OV48 (%): 48 h after treatment, OG, LS means
Procedure: Approximately 120 parity one to seven sows (30 sows within each treatment group) were used to obtain ovulation and reproductive tract data. All sows were of the same genotype (PIC C22). Following 16 to 24 days of lactation, sows were blocked by length of lactation and parity and randomly assigned to one of four treatments: 1) a placebo group, receiving a placebo gel at 96±2 hours post-weaning and a single AI 24 hours later, 2) triptorelin gel at 96±2 hours post-weaning and AI 18 to 20 hours later. 3) triptorelin gel at 96±2 hours post-weaning and AI 24 to 26 hours later, and 4) triptorelin gel at 96±2 hours post-weaning and AI 30 to 32 hours later. The placebo formulation was identical to the active formulation but without the hormone being present. All treatments were deposited into the anterior vagina within 2 cm of the cervix. Follicular development and ovulation was monitored via real time ultrasound at 24, 32, 40, 48, and 56 hours after treatment. Thirty (30) days after insemination, all sows were slaughtered and reproductive tracts obtained. Pregnancy rates and embryo survival were determined. Triptorelin was administered at 96 hours (±2 hr) post-weaning as a single 2 mL dose deposited approximately 1-2 cm posterior to the cervix with a modified artificial insemination catheter. Weaning of sows occurred between 10 a.m. and noon on Day (O). The timing of the insemination for each group of sows was given as directed in the protocol. Those sows scheduled to be inseminated 18 hours following administration of triptorelin were generally inseminated between 6:00 a.m. and 8:00 a.m. the following day, those sows scheduled to be inseminated 24 hours following administration of triptorelin were generally inseminated between noon and 2:00 p.m. the following day and those sows scheduled to be inseminated 30 hours following administration of triptorelin were generally inseminated between 6:00 p.m. and 8:00 p.m. the following day. The single insemination for each sow was performed as they were normally done at the farm. […] Ultrasonography was performed at 24 hr (±1.5 hour) after treatment on Day 5 and again at 8:00 p.m. (±1.5 hour) on Day 5. On Day 6 transrectal ultrasonography was performed at 4:00 a.m. (±1 hour), noon (±1 hr) and 8:00 p.m. (±1 hr) until ovulation was complete or until the 8:00 p.m. ultrasonography on Day 6 (the 56 hour mark from the animals treated at 96 hours post-weaning) whichever came first. An Aloka 500 ultrasound machine was used for this purpose, with a 7.5 MHz linear array transducer attached to a fixed-angle PVC stabilizing rod to facilitate insertion into the rectum. The transducer and PVC rod were coated with a gynecological lubricant and gently inserted into the rectum until the ovaries could be visualized, one at a time. The diameters of the three largest follicles were to be recorded (to the nearest 0.1 mm) at each scanning. A sow was declared to have ovulated when the number of large follicles 6.5 mm) fell to less than 3. […] For all analyses, the models contained the fixed effects of treatment (placebo controls inseminated 24 hours after treatment, triptorelin treated sows inseminated 18 hours after treatment, triptorelin treated sows inseminated 24 hours after treatment and triptorelin treated sows inseminated 30 hours after treatment) and replicate. The records for sow parity and lactation length were included as covariates. First order interaction of treatment and replicate was tested and removed when non-significant. […]

[2] = test system: sows; test: Pregnancy rate and litter size at slaughter 30 days after insemination (Examples 1-7); assay type: in vivo, swine; settings: OG, LS means; for Pregnant (%): pregnant at slaughter of all sows allotted
Procedure: Approximately 120 parity one to seven sows (30 sows within each treatment group) were used to obtain ovulation and reproductive tract data. All sows were of the same genotype (PIC C22). Following 16 to 24 days of lactation, sows were blocked by length of lactation and parity and randomly assigned to one of four treatments: 1) a placebo group, receiving a placebo gel at 96±2 hours post-weaning and a single AI 24 hours later, 2) triptorelin gel at 96±2 hours post-weaning and AI 18 to 20 hours later. 3) triptorelin gel at 96±2 hours post-weaning and AI 24 to 26 hours later, and 4) triptorelin gel at 96±2 hours post-weaning and AI 30 to 32 hours later. The placebo formulation was identical to the active formulation but without the hormone being present. All treatments were deposited into the anterior vagina within 2 cm of the cervix. Follicular development and ovulation was monitored via real time ultrasound at 24, 32, 40, 48, and 56 hours after treatment. Thirty (30) days after insemination, all sows were slaughtered and reproductive tracts obtained. Pregnancy rates and embryo survival were determined. Triptorelin was administered at 96 hours (±2 hr) post-weaning as a single 2 mL dose deposited approximately 1-2 cm posterior to the cervix with a modified artificial insemination catheter. Weaning of sows occurred between 10 a.m. and noon on Day (O). The timing of the insemination for each group of sows was given as directed in the protocol. Those sows scheduled to be inseminated 18 hours following administration of triptorelin were generally inseminated between 6:00 a.m. and 8:00 a.m. the following day, those sows scheduled to be inseminated 24 hours following administration of triptorelin were generally inseminated between noon and 2:00 p.m. the following day and those sows scheduled to be inseminated 30 hours following administration of triptorelin were generally inseminated between 6:00 p.m. and 8:00 p.m. the following day. The single insemination for each sow was performed as they were normally done at the farm. […] There was a tendency (p=0.09) for triptorelin treated sows inseminated at 18 hours (12.4 fetuses) and at 24 hours (11.8 fetuses) post treatment to have a higher number of healthy fetuses than triptorelin treated sows inseminated at 30 hours (8.6) post treatment and for vehicle treated sows inseminated at 24 hours (8.6) following treatment. […] For all analyses, the models contained the fixed effects of treatment (placebo controls inseminated 24 hours after treatment, triptorelin treated sows inseminated 18 hours after treatment, triptorelin treated sows inseminated 24 hours after treatment and triptorelin treated sows inseminated 30 hours after treatment) and replicate. The records for sow parity and lactation length were included as covariates. First order interaction of treatment and replicate was tested and removed when non-significant. Differences between treatments were tested on least squares means estimates using the T test at P<0.05.

## CC(C)C[C@H](NC(=O)[C@@H](Cc1c[nH]c2ccccc12)NC(=O)[C@H](Cc1ccc(O)cc1)NC(=O)[C@H](CO)NC(=O)[C@H](Cc1c[nH]c2ccccc12)NC(=O)[C@H](Cc1c[nH]cn1)NC(=O)[C@@H]1CCC(=O)N1)C(=O)N[C@@H](CCCNC(=N)N)C(=O)N1CCC[C@H]1C(=O)NCC(N)=O [triptorelin, pGlu-His-Trp-Ser-Tyr-D-Trp-Leu-Arg-Pro-Gly-NH2]
[1]; 120 to 144 hr after weaning, triptorelin treated sows
  sows ovulating during their most synchronous 24 hr period: 70-77%
[1]; AI 18 h
  OV48 (%): 74.0%
[1]; AI 24 h
  OV48 (%): 77.0%
[1]; AI 30 h
  OV48 (%): 76.8%
[1]; average of triptorelin treated sows
  percentage of sows ovulating by 56 hours after treatment: 80.4%
[2]; AI 18 h
  Number of Healthy Fetuses: 12.4
  Pregnant (%): 74.4%
[2]; AI 24 h
  Number of Healthy Fetuses: 11.8
  Pregnant (%): 68.1%
[2]; AI 30 h
  Number of Healthy Fetuses: 8.6
  Pregnant (%): 62.3%
